# From ChEMBL document CHEMBL1201862, “PubChem BioAssay data set” (2004)
# Where a name gives a salt, the structure may show the parent alone. Active and inactive are the calls of the source.
# Key:
# [1] = target: T1, Polyadenylate-binding protein 1 (Homo sapiens, UniProt P11940); assay: MLLE domain peptide-binding blockers, IC50 – biochemical, fluorescence polarization, FITC-PAM2 peptide, dose response (AID 602259); format: functional; conditions: read-out: IC50_Mean
# [2] = target: T1, Polyadenylate-binding protein 1; assay: MLLE binding blockers, Cy5 peptide tracer – biochemical, fluorescence polarization, Cy5-PAM2 peptide, secondary, miRNA deadenylation inhibitor project, dose response (AID 602260); format: functional; conditions: read-out: IC50_Mean
# Genome polyprotein = Genome polyprotein (dengue virus type 2, UniProt P29990); assay: flavivirus cap methylation enzyme inhibition – biochemical, confirmation dose response, primary screen (AID 588689); format: functional
# Genome polyprotein, sequence (P29990 2492-3391 limits assumed): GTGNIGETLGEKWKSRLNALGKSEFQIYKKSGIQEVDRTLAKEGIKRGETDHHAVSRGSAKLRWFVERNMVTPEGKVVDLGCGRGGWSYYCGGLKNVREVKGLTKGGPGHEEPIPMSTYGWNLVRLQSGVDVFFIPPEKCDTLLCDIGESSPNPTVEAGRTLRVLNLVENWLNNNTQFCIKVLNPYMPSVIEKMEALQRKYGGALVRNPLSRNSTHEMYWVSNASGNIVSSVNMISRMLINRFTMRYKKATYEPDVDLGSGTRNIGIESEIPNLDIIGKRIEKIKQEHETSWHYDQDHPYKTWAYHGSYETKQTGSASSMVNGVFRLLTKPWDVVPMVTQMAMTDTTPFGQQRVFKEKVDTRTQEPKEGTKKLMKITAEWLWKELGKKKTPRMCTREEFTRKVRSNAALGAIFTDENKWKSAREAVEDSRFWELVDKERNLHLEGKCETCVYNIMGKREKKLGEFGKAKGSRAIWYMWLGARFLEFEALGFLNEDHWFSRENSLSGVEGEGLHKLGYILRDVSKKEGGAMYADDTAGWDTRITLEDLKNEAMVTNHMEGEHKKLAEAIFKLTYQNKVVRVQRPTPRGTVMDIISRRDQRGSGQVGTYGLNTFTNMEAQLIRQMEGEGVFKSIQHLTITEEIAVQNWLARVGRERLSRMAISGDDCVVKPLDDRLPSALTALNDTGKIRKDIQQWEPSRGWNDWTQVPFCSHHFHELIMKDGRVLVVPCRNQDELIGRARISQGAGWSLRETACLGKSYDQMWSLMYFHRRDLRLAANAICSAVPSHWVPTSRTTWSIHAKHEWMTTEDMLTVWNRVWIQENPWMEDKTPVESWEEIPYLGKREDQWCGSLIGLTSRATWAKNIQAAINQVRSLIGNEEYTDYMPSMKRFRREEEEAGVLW
# cells [3] = format: functional, cell-based
# cells [4] = format: functional, cell-based; remark: listed apart in the source
# Fatty acid synthase [5] = target: T2, Fatty acid synthase (Homo sapiens, UniProt P49327); assay: inhibition of human FAS-TE enzyme activity – biochemical, kinetic fluorescence intensity, dose response (AID 624326); format: functional;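 also: rate of fluorescence rise from hydrolysis of a fluorogenic O-methyl fluorescein ester substrate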
# T2 sequence (P49327 whole entry): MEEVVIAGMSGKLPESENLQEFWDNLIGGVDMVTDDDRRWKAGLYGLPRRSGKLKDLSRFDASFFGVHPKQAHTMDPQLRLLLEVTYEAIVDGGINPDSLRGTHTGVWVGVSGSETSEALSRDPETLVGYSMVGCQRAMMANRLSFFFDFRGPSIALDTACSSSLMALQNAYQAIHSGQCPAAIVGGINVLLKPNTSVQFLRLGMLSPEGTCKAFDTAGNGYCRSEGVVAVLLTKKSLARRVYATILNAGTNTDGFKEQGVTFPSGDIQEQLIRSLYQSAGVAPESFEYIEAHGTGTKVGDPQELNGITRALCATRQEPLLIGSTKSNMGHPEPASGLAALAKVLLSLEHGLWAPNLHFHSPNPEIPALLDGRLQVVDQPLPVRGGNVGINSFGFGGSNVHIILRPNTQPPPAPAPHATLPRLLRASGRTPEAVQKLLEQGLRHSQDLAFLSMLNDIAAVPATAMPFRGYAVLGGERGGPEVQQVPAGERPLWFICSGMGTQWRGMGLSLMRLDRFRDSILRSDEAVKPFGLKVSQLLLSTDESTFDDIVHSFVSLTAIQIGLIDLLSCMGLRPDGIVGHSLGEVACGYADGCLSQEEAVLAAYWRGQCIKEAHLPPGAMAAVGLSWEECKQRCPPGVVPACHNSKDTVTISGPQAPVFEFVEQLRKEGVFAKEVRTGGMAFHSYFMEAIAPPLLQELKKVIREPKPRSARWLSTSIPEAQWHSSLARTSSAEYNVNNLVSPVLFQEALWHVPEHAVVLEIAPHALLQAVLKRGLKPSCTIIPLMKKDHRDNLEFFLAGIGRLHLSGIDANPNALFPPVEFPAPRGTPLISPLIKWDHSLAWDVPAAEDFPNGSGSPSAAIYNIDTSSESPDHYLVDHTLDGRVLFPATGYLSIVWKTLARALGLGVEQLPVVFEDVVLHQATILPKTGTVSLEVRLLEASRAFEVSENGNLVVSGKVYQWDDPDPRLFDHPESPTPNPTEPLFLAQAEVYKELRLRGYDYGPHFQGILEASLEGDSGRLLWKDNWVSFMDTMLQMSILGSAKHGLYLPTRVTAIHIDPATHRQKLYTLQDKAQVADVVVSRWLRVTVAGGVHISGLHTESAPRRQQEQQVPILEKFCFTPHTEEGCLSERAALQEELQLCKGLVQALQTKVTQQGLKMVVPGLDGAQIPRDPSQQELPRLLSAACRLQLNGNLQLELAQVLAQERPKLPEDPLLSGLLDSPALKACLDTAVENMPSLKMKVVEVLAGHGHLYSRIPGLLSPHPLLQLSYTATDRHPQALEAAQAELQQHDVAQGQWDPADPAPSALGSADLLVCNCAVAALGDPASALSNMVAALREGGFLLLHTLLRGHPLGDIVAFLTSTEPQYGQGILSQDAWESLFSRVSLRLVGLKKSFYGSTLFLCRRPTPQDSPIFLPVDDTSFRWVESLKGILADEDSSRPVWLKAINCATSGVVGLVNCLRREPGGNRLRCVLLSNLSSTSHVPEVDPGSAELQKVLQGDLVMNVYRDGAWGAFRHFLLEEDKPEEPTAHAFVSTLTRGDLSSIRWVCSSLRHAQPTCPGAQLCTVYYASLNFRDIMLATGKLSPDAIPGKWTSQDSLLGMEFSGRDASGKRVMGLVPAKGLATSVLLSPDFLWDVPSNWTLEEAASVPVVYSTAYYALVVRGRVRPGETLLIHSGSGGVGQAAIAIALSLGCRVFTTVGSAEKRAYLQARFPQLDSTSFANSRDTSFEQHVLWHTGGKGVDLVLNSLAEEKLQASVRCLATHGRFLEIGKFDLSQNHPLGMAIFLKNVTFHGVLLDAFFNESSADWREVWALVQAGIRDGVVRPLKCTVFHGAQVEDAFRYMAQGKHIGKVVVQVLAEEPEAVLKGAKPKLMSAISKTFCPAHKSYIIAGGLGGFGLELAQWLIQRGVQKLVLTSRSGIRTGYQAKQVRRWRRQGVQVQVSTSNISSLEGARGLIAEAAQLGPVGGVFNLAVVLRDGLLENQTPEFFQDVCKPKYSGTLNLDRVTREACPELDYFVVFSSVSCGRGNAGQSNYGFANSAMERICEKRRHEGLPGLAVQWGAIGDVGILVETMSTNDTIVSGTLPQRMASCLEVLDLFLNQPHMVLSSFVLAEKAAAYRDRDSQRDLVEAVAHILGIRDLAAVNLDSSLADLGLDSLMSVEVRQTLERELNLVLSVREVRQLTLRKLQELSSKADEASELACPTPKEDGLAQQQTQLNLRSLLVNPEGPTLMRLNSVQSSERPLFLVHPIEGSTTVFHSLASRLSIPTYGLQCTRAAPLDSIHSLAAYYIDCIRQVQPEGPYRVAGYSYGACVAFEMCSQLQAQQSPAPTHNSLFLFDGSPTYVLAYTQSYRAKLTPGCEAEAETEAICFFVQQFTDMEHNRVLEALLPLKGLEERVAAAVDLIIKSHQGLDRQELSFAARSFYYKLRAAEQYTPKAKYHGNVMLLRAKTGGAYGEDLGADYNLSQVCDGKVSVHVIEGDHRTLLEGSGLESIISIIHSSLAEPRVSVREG
# [6] = NIH3T3 cell viability loss – ATP luminescence, mouse fibroblasts, counter-screen, dose response (AID 2010); format: functional, cell-based;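 also: cells exposed to compound for about 90 hours before reading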
# [7] = target: T3, Short transient receptor potential channel 4 (Mus musculus, UniProt Q9QUQ5); assay: block of DAMGO-driven TRPC4 calcium entry – cell-based, HEK293 TRPC4/mu-opioid, Fluo-4 calcium, dose response (AID 434942); format: functional;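 also: potency of inhibitors blocking the TRPC4 calcium response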
# T3 sequence (Q9QUQ5 whole entry): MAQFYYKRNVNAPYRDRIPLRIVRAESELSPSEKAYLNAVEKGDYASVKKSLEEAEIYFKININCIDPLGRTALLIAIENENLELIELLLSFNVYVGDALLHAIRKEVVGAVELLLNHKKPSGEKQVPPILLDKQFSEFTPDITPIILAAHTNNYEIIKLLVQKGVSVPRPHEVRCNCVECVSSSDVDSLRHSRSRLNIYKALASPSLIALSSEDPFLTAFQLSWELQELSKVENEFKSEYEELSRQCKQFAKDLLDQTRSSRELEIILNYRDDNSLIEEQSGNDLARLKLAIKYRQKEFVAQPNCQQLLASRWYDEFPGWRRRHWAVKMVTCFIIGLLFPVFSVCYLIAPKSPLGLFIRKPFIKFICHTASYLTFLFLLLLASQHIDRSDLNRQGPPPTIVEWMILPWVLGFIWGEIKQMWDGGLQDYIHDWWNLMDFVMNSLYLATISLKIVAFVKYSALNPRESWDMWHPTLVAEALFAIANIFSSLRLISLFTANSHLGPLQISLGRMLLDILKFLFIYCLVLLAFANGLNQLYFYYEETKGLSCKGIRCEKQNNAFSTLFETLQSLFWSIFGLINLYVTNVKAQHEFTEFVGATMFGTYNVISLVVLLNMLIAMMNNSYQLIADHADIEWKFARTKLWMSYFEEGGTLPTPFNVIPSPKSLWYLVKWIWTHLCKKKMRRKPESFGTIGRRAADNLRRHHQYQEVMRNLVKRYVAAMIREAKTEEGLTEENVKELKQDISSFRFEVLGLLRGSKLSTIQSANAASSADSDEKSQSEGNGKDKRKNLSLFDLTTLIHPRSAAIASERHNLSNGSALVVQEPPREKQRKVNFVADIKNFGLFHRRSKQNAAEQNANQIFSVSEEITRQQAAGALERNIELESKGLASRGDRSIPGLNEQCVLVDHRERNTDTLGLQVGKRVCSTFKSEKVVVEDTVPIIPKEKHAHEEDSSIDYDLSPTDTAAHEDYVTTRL
# [8] = Trypanosoma cruzi growth suppression in host cells – NIH3T3 host cells, beta-gal luminescence, confirmation (AID 2044); format: functional, cell-based;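 also: intracellular parasites grown in NIH/3T3 mouse fibroblasts as host cells; luminescent beta-galactosidase reporter signal from transgenic T. cruzi replicating inside host cells; inhibitors lower the luminescence signal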
# SN12K1 = assay: cells; format: functional; conditions: Homo sapiens
# P388 = assay: cells; format: functional; conditions: Mus musculus
# P388/ADR = assay: cells; format: functional; conditions: Mus musculus
# H4 = assay: Luminescence Cell-Based Dose Response HTS to Identify Activators of 5'UTR Stem-Loop Driven Prion Protein mRNA Translation in H4 Neuroglioblastoma Cells. [Related pubchem assays: 1829 (Project Summary), 1814 (Primary HTS)]; format: functional; conditions: Homo sapiens
# [9] = Luminescence Cell-Based Dose Confirmation HTS to Identify Activators of 5'UTR Stem-Loop Driven Alpha-Synuclein mRNA Translation in H4 Neuroglioblastoma Cells. [Related pubchem assays: 1829 (Project Summary), 1814 (Primary HTS)]; format: functional
# [10] = Luminescence Cell-Based Dose Response HTS to Identify Activators of Luciferase Translation or Activity in H4 […] Cells. [Related pubchem assays: 1829 (Project Summary), 1814 (Primary HTS)]; format: functional
# Fatty acid synthase [11] = target: T2, Fatty acid synthase; assay: inhibition of human FAS-TE enzyme activity – biochemical, endpoint fluorescence intensity, uHTS hits, dose response (AID 624327); format: functional;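 also: fluorescence from hydrolysis of an O-methyl fluorescein acyl ester substrate by the enzyme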
# [12] = reduction of Shn3 3'UTR-driven luciferase in osteoblasts – cell-based, Clone20 osteoblasts, firefly luciferase, cherry-picked, dose response (AID 624132); format: functional;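 also: firefly luciferase luminescence from reporter carrying the Shn3 3'UTR in osteoblasts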
# [13] = non-specific 3'UTR reporter inhibition in Clone20-Shn3RL – cell-based, Renilla luciferase, cherry-picked, counter-screen for Shn3 inhibitor project, dose response (AID 624133); format: functional
# [14] = target: T4, Carboxy-terminal domain RNA polymerase II polypeptide A small phosphatase 1 (Homo sapiens, UniProt Q9GZU7); assay: CTDSP1 inhibitors, concentration-response, biochemical, absorbance readout, ultra-high-throughput screen actives (AID 540297); format: functional
# T4 sequence (Q9GZU7 whole entry): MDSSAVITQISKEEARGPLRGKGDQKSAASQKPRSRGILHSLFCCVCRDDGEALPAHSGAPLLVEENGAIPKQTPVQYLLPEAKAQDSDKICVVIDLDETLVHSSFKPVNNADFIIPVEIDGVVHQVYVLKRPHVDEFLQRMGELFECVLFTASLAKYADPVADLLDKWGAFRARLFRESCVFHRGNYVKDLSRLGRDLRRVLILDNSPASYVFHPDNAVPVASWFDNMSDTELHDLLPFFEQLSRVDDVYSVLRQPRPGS
# T1 sequence (P11940 whole entry, the tested form may be a part): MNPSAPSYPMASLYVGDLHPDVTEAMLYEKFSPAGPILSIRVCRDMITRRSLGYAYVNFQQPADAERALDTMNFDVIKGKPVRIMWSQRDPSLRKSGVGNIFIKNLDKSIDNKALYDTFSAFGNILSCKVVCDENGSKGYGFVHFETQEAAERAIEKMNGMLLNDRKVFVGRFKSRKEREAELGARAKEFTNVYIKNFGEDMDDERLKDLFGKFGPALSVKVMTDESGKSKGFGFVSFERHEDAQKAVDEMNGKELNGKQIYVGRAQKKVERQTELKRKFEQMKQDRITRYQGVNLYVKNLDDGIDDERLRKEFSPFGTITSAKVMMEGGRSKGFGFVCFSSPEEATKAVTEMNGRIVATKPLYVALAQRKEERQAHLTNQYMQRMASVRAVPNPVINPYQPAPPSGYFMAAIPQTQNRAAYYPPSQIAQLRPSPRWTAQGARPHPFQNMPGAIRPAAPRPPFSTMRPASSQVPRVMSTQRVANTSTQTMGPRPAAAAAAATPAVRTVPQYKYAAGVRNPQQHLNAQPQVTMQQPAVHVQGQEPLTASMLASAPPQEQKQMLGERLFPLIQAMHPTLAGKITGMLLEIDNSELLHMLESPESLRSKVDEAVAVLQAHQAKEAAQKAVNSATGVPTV
smiles,measurement,setting,value
Cc1ccccc1NC(=O)CSc1nnc(C)c(O)n1,IC50,[1],> 66 µM (inactive)
same,IC50,[2],> 66 µM (inactive)
O=C1Nc2ccc(Cl)cc2C12Nc1ccccc1-c1nnc(SCc3ccccc3F)nc1O2 (stereo not given),IC50,Genome polyprotein,43.2 µM (active)
CC(C)(C)c1ccc(N2C(=O)CC(C/C=C/c3ccccc3)C2=O)cc1 (stereo not given),EC50,cells [3],> 350 µM (not active)
same,EC50,cells [4],> 350 µM (not active)
COC(=O)c1cc(C(=O)NC(C)C2CC3CCC2C3)cc([N+](=O)[O-])c1 (stereo not given),IC50,Fatty acid synthase [5],11.5 µM (active)
Fc1ccccc1COc1ccccc1CNCc1ccncc1,EC50,[6],> 60 µM (not active)
same,EC50,[7],7.5 µM (active)
same,EC50,[8],1.45 µM (active)
Cc1cc(C)n2cc(CSc3nnc(N)s3)nc2n1,IC50,[1],> 66 µM (inactive)
same,IC50,[2],> 66 µM (inactive)
C#CCOc1ccc(/C=C2/C(=O)ON=C2C)cc1Cl,IC50,Genome polyprotein,97.1 µM (active)
COc1ccccc1-n1cc(-c2ccc([N+](=O)[O-])cc2)nc1S,IC50,[1],> 66 µM (inactive)
same,IC50,[2],> 66 µM (inactive)
O=C1NC(=S)N/C1=C/C=C/c1ccccc1,IC50,Genome polyprotein,99.8 µM (active)
O=C(O)c1cn2c3c(cc(N4CCN(CCO)CC4)cc3c1=O)SCC2,GI50,SN12K1,40.5 µM (inactive)
same,GI50,P388,61.5 µM (inactive)
same,GI50,P388/ADR,> 100 µM (inactive)
O=C(COC(=O)CCc1c[nH]c(O)n1)Nc1ccccc1,IC50,[1],44.9 µM (inactive)
same,IC50,[2],> 66 µM (inactive)
CCCNC(=O)c1cc(-c2ccco2)on1,EC50,cells [3],> 350 µM (not active)
same,EC50,cells [4],10 µM (active)
same,EC50,H4,50.4 µM (active)
same,EC50,[9],13.7 µM (active)
same,EC50,[10],59.3 µM (active)
CN(C)c1nc2n(c(=O)n1)C(C#N)CS2 (stereo not given),IC50,[1],> 66 µM (inactive)
same,IC50,[2],> 66 µM (inactive)
CC(OCC(O)CN(C)CCOc1ccccc1)c1ccc(Cl)cc1 (stereo not given),EC50,[7],3.76 µM (active)
O=C(O)c1ccc2c(c1)NC(=O)C(N1CCCC1)S2 (stereo not given),IC50,[1],55.5 µM (inactive)
same,IC50,[2],> 66 µM (inactive)
CCOC(=O)c1c(NC(=O)CCC(=O)O)sc2c1CCCCC2,EC50,cells [3],24.5 µM (active)
same,EC50,cells [4],> 350 µM (not active)
CCN(CCCCCN(C)C)Cc1cc2ccccc2o1,EC50,cells [3],> 350 µM (not active)
same,EC50,cells [4],> 350 µM (not active)
CCOC(=O)c1sc(=S)n(-c2ccc3c(c2)OCO3)c1N,IC50,[1],> 66 µM (inactive)
same,IC50,[2],> 66 µM (inactive)
O=C(Nn1c(C2CCCCC2)nc2ccccc2c1=O)c1ccc(Cl)c([N+](=O)[O-])c1,IC50,Fatty acid synthase [11],12.8 µM (active)
same,IC50,Fatty acid synthase [5],11.2 µM (active)
O=C(Nc1ccccc1)N(C1=NCCCCS1)c1cccc2ccccc12,EC50,cells [3],43.7 µM (active)
same,EC50,cells [4],> 350 µM (not active)
CC(=O)Nc1cccc(NC(=O)CS(=O)(=O)c2cn(CC(=O)N3CCOCC3)c3ccccc23)c1,EC50,cells [3],> 350 µM (not active)
same,EC50,cells [4],> 350 µM (not active)
CCN(c1ccccc1)S(=O)(=O)c1ccc(Cl)c(NC(=O)CN(C)Cc2cccc(F)c2)c1,AC50,[12],8.78 µM (active)
same,AC50,[13],6.46 µM (active)
Cc1ccc([C@@H]2CC=C(C(=O)O)[C@H](c3ccc(Br)cc3)N2S(=O)(=O)c2ccc(C)cc2)cc1,IC50,Genome polyprotein,42.5 µM (active)
CCc1cccc(CC)c1NC(=O)CSc1nnc(CCC(=O)O)c(O)n1,IC50,[1],> 66 µM (inactive)
same,IC50,[2],> 66 µM (inactive)
O=C(NC(Cc1ccc(I)cc1)C(=O)O)c1ccc(Cl)cc1 (stereo not given),GI50,SN12K1,> 100 µM (inactive)
same,GI50,P388,72.4 µM (inactive)
same,GI50,P388/ADR,62.1 µM (inactive)
Cc1cccc(C(=O)Oc2ccc(/C=N/NC(=O)c3cc(O)cc(O)c3)cc2)c1,IC50,[14],4.14 µM (active)
CC[C@@]1(O)C[C@H](OC2CC(N(C)C)C(O)C(C)O2)c2c(cc3c(c2O)C(=O)c2c(O)ccc(O)c2C3=O)[C@H]1C(=O)OC (stereo not given in full),GI50,SN12K1,0.0328 µM (active)
same,GI50,P388,0.0175 µM (active)
same,GI50,P388/ADR,0.0175 µM (active)
CCCCCCCCCCCCCCCCNCC(O)CN (stereo not given),GI50,SN12K1,1.77 µM (inactive)
same,GI50,P388,1.95 µM (inactive)
same,GI50,P388/ADR,2.05 µM (inactive)
COC(=O)C1C(O)C(C)C(O)OC1C(C)C(O)C(C)/C=C\C=C(/C)C(=O)Nc1c(C)c(OC(C)=O)c2c(c1O)C(=O)C(C)=C1OCOC(/C(C)=C/C(C)=O)=C12 (stereo not given),GI50,SN12K1,13.3 µM (inactive)
same,GI50,P388,1.93 µM (inactive)
same,GI50,P388/ADR,13.2 µM (inactive)
O=S(=O)(O)c1ccc(/N=N\c2ccc(/N=N\c3ccc(/C=C/c4ccc(/N=[N+](/[O-])c5ccc(/C=C/c6ccc(/N=N/c7ccc(/N=N\c8ccc(S(=O)(=O)O)cc8)cc7)cc6S(=O)(=O)O)c(S(=O)(=O)O)c5)cc4S(=O)(=O)O)c(S(=O)(=O)O)c3)cc2)cc1,GI50,SN12K1,> 100 µM (inactive)
same,GI50,P388,> 100 µM (inactive)
same,GI50,P388/ADR,> 100 µM (inactive)
CC(C)(C)c1ccc(C(=O)N2CCC2(C)C(=O)Nc2cccc(C#N)c2)cc1 (stereo not given),IC50,Fatty acid synthase [11],5.47 µM (active)
same,IC50,Fatty acid synthase [5],7.78 µM (active)
COc1cc(O)c2c(c1)C(=O)c1cc3c(c(O)c1C2=O)C(OC1OC(C)C(O)C(O)C1OC)C(OC)C(C)(O)C3=O (stereo not given),GI50,SN12K1,2.42 µM (inactive)
same,GI50,P388,5.66 µM (inactive)
same,GI50,P388/ADR,7.59 µM (inactive)
CCC(C)CCCCCCCCCCC(=O)O (stereo not given),IC50,Genome polyprotein,42 µM (active)
O=Cc1c(Cn2ccnc2)c2cc([N+](=O)[O-])ccc2n1Cc1ccccc1,GI50,SN12K1,50.8 µM (inactive)
same,GI50,P388,40.8 µM (inactive)
same,GI50,P388/ADR,63 µM (inactive)
CCN(CC)CCNc1ccc(CO)c2sc3ccccc3c(=O)c12 [HYCANTHONE MESYLATE],GI50,SN12K1,7.43 µM (inactive)
same,GI50,P388,2.94 µM (inactive)
same,GI50,P388/ADR,7.35 µM (inactive)
